Experimental data from patent US20260216238A1, “TETRATHIOMOLYBDIC ACID FOR USE IN TREATING COPPER METABOLISM-ASSOCIATED DISEASES OR DISORDERS (WILSON DISEASE)” (Alexion Pharmaceuticals, Inc., priority 2023, published 2026).
Read-outs that look alike come from different tables or passages of the source.

Key:
[1] = tested on: patients with Wilson disease (WD); conditions: in vivo
[2] = tested on: patients with Wilson disease (WD); assay type: in vivo
Text: Adverse events were reported by the patient (or, when appropriate, by a caregiver, surrogate, or the patient's legally authorized representative). The Investigator and any qualified designees were responsible for detecting, documenting, and recording events that meet the definition of an AE or SAE and remain responsible for following up AEs that were serious, considered related to the study intervention or study procedures, or that caused the patient to discontinue the study.
The safety analysis was performed on the Safety Analysis Set. This dataset includes all patients who received at least 1 dose of randomized treatment. Patients were summarized according to the treatment actually received.
Acute worsening of neurologic symptoms typically within 6 months of start of therapy is a known complication associated with chelation therapy for WD. […] Neurologic AESI for Study 301 were considered as all AEs in the Medical Dictionary for Regulatory Activities (MedDRA) System Organ Class (SOC) “Nervous system disorders” or any other AE judged by the Investigator as an AESI.

[3] = human, in vivo
[4] = Primary Evaluation Period, 48 Weeks

In the case of bis-choline tetrathiomolybdate [TTM], the “AEs in SOC Investigations” value [1] is reported as 29.5%, the “AEs in SOC Metabolism and nutrition disorders” value [1] is reported as 11.5% and the “AEs in SOC Skin and subcutaneous tissue disorders” value [1] is reported as 13.1%. For the same substance, the “Affective disorder, E (events)” value [1] was 0, the “Affective disorder, participants with AE” value [1] was 0 N (%) and the “Alanine aminotransferase increased AE, % participants” value [1] was 19.7%. The “Alanine aminotransferase increased AE, E events” value [1] was 14, the “Alanine aminotransferase increased AE, N participants” value [1] was 12 and the “Anxiety, E (events)” value [1] was 1. The “Anxiety, participants with AE” value [1] was 1 (1.6) N (%), the “Aspartate aminotransferase increased AE, % participants” value [1] was 6.6% and the “Aspartate aminotransferase increased AE, E events” value [1] was 4. The “Aspartate aminotransferase increased AE, N participants” value [1] was 4, the “Attention deficit hyperactivity disorder, E (events)” value [1] was 0 and the “Attention deficit hyperactivity disorder, participants with AE” value [1] was 0 N (%). The “Blood and lymphatic system disorders, E (events)” value [1] was 18, the “Blood and lymphatic system disorders, participants with AE” value [1] was 7 (11.5) N (%) and the “Cardiac disorders, E (events)” value [1] was 5. The “Cardiac disorders, participants with AE” value [1] was 3 (4.9) N (%), the “Congenital, familial, and genetic disorders, E (events)” value [1] was 0 and the “Congenital, familial, and genetic disorders, participants with AE” value [1] was 0 N (%). The “Dyslipidemia AE, % participants” value [1] was 1.6%, the “Dyslipidemia AE, E events” value [1] was 1 and the “Dyslipidemia AE, N participants” value [1] was 1. For the same substance, the “Ear and labyrinth disorders, E (events)” value [1] was 1, the “Ear and labyrinth disorders, participants with AE” value [1] was 1 (1.6) N (%) and the “Eczema AE, % participants” value [1] was 1.6%. For the same substance, the “Eczema AE, E events” value [1] was 1, the “Eczema AE, N participants” value [1] was 1 and the “Eye disorders, E (events)” value [1] was 0. The “Eye disorders, participants with AE” value [1] was 0 N (%), the “Fatigue AE, % participants” value [1] was 8.2% and the “Fatigue AE, E events” value [1] was 5. The “Fatigue AE, N participants” value [1] was 5, the “Gamma-glutamyltransferase increased AE, % participants” value [1] was 4.9% and the “Gamma-glutamyltransferase increased AE, E events” value [1] was 3. For the same substance, the “Gamma-glutamyltransferase increased AE, N participants” value [1] was 3, the “Gastrointestinal disorders, E (events)” value [1] was 30 and the “Gastrointestinal disorders, participants with AE” value [1] was 18 (29.5) N (%). For the same substance, the “Hand dermatitis AE, % participants” value [1] was 1.6%, the “Hand dermatitis AE, E events” value [1] was 1 and the “Hand dermatitis AE, N participants” value [1] was 1. The “Hepatic enzyme increased AE, N participants” value [1] was 3, the “Hepatobiliary disorders, E (events)” value [1] was 3 and the “Hepatobiliary disorders, participants with AE” value [1] was 2 (3.3) N (%). For the same substance, the “Hyperlipidaemia AE, % participants” value [1] was 1.6%, the “Hyperlipidaemia AE, E events” value [1] was 1 and the “Hyperlipidaemia AE, N participants” value [1] was 1. For the same substance, the “Hypertriglyceridaemia AE, % participants” value [1] was 1.6%, the “Hypertriglyceridaemia AE, E events” value [1] was 3 and the “Hypertriglyceridaemia AE, N participants” value [1] was 1. The “Infections and infestations, E (events)” value [1] was 23, the “Infections and infestations, participants with AE” value [1] was 17 (27.9) N (%) and the “Injury, poisoning and procedural complications, E (events)” value [1] was 13. For the same substance, the “Injury, poisoning and procedural complications, participants with AE” value [1] was 7 (11.5) N (%), the “Investigations (SOC) AE, % participants” value [1] was 29.5% and the “Investigations (SOC) AE, E events” value [1] was 29. For the same substance, the “Investigations (SOC) AE, N participants” value [1] was 18, the “Metabolism and nutrition disorders (SOC) AE, % participants” value [1] was 11.5% and the “Metabolism and nutrition disorders (SOC) AE, E events” value [1] was 10. The “Metabolism and nutrition disorders (SOC) AE, N participants” value [1] was 7, the “Neoplasms benign, malignant, and unspecified (incl cysts and polyps), E (events)” value [1] was 1 and the “Neoplasms benign, malignant, and unspecified (incl cysts and polyps), participants with AE” value [1] was 1 (1.6) N (%). For the same substance, the “Nervous system disorders, E (events)” value [1] was 12, the “Nervous system disorders, participants with AE” value [1] was 11 (18.0) N (%) and the “Neutrophil count decreased AE, % participants” value [1] was 1.6%. For the same substance, the “Neutrophil count decreased AE, E events” value [1] was 1, the “Neutrophil count decreased AE, N participants” value [1] was 1 and the “Post-traumatic stress disorder, E (events)” value [1] was 1. The “Post-traumatic stress disorder, participants with AE” value [1] was 1 (1.6) N (%), the “Product issues, E (events)” value [1] was 0 and the “Product issues, participants with AE” value [1] was 0 N (%). The “Pruritus AE, % participants” value [1] was 3.3%, the “Pruritus AE, E events” value [1] was 2 and the “Pruritus AE, N participants” value [1] was 2. For the same substance, the “Psychiatric disorders, E (events)” value [1] was 3, the “Psychiatric disorders, participants with AE” value [1] was 3 (4.9) N (%) and the “Pyrexia AE, % participants” value [1] was 1.6%. The “Pyrexia AE, E events” value [1] was 1, the “Pyrexia AE, N participants” value [1] was 1 and the “Rash AE, % participants” value [1] was 1.6%. The “Rash AE, E events” value [1] was 5, the “Rash AE, N participants” value [1] was 1 and the “Rash pruritic AE, % participants” value [1] was 1.6%. The “Rash pruritic AE, E events” value [1] was 1, the “Rash pruritic AE, N participants” value [1] was 1 and the “Renal and urinary disorders, E (events)” value [1] was 2. The “Renal and urinary disorders, participants with AE” value [1] was 1 (1.6) N (%), the “Reproductive system and breast disorders, E (events)” value [1] was 0 and the “Reproductive system and breast disorders, participants with AE” value [1] was 0 N (%). The “Respiratory, thoracic, and mediastinal disorders, E (events)” value [1] was 4, the “Respiratory, thoracic, and mediastinal disorders, participants with AE” value [1] was 3 (4.9) N (%) and the “Restlessness, E (events)” value [1] was 0. The “Restlessness, participants with AE” value [1] was 0 N (%), the “Skin and subcutaneous tissue disorders (SOC) AE, % participants” value [1] was 13.1% and the “Skin and subcutaneous tissue disorders (SOC) AE, E events” value [1] was 15. For the same substance, the “Skin and subcutaneous tissue disorders (SOC) AE, N participants” value [1] was 8, the “Sleep disorder, E (events)” value [1] was 1 and the “Sleep disorder, participants with AE” value [1] was 1 (1.6) N (%). The “Vascular disorders, E (events)” value [1] was 5, the “Vascular disorders, participants with AE” value [1] was 3 (4.9) N (%) and the “AEs in SOC Ear and labyrinth disorders” value ([2]; Primary Evaluation Period) was 5.1%. The “AEs in SOC Hepatobiliary disorders” value ([2]; Primary Evaluation Period) was 6.6%, the “AEs in SOC Investigations” value ([2]; Primary Evaluation Period) was 33.6% and the “AEs in SOC Psychiatric disorders” value ([2]; Primary Evaluation Period) was 19.0%. The “AEs in SOC Skin and subcutaneous tissue disorders” value ([2]; Primary Evaluation Period) was 21.9%, the “incidence of SAEs, Nervous system disorders” value ([2]; Primary Evaluation Period) was 4.4% and the incidence of headache ([2]; Primary Evaluation Period) was 8.0%. The incidence of tremor ([2]; Primary Evaluation Period) was 7.3%, the “participants with highest severity Grade 1 AEs, Nervous system disorders” value ([2]; Primary Evaluation Period) was 24.1% and the “participants with highest severity Grade 2 AEs, Nervous system disorders” value ([2]; Primary Evaluation Period) was 13.9%. For the same substance, the “Alanine aminotransferase increased AE, % participants” value [2, 4] was 14.6%, the “Alanine aminotransferase increased AE, N participants” value [2, 4] was 20 and the “Aspartate aminotransferase increased AE, % participants” value [2, 4] was 2.9%. For the same substance, the “Aspartate aminotransferase increased AE, N participants” value [2, 4] was 4, the “Ear and labyrinth disorders (SOC) AE, % participants” value [2, 4] was 5.1% and the “Ear and labyrinth disorders (SOC) AE, N participants” value [2, 4] was 7. The “Fatigue AE, % participants” value [2, 4] was 9.5%, the “Fatigue AE, N participants” value [2, 4] was 13 and the “Gamma-glutamyltransferase increased AE, % participants” value [2, 4] was 2.2%. The “Gamma-glutamyltransferase increased AE, N participants” value [2, 4] was 3, the “Hepatic enzyme increased AE, % participants” value [2, 4] was 2.2% and the “Hepatic enzyme increased AE, N participants” value [2, 4] was 3. For the same substance, the “Hepatobiliary disorders (SOC) AE, % participants” value [2, 4] was 6.6%, the “Hepatobiliary disorders (SOC) AE, N participants” value [2, 4] was 9 and the “Investigations (SOC) AE, % participants” value [2, 4] was 33.6%. The “Investigations (SOC) AE, N participants” value [2, 4] was 46, the “Nervous system disorders (SOC) AE, % participants” value [2, 4] was 34.3% and the “Nervous system disorders (SOC) AE, N participants” value [2, 4] was 47. For the same substance, the “Neutrophil count decreased AE, % participants” value [2, 4] was 1.5%, the “Neutrophil count decreased AE, N participants” value [2, 4] was 2 and the “Pruritus AE, % participants” value [2, 4] was 3.6%. For the same substance, the “Pruritus AE, N participants” value [2, 4] was 5, the “Psychiatric disorders (SOC) AE, % participants” value [2, 4] was 19.0% and the “Psychiatric disorders (SOC) AE, N participants” value [2, 4] was 26. The “Pyrexia AE, % participants” value [2, 4] was 5.8%, the “Pyrexia AE, N participants” value [2, 4] was 8 and the “Rash AE, % participants” value [2, 4] was 6.6%. The “Rash AE, N participants” value [2, 4] was 9, the “Skin and subcutaneous tissue disorders (SOC) AE, % participants” value [2, 4] was 21.9% and the “Skin and subcutaneous tissue disorders (SOC) AE, N participants” value [2, 4] was 30. The “incidence of AEs in SOC Nervous system disorders” value [2, 4] was 34.3%, the “patients with neurologic AEs” value ([2]; cohort 1 incomplete response or intolerant) was 31.8% and the “participants with neurologic AESI in SOC Psychiatric disorders” value ([2]; seven events in 5 participants) was 3.6%. For the same substance, the “effect of age on plasma total molybdenum clearance” value [3] was “not a significant covariate”.
